The values below come from patent US20240018140A1, “MODIFIED IMIDAZOPYRIDINES AS GLUCOSYLCERAMIDE SYNTHASE INHIBITORS” (Merck Sharp & Dohme LLC, priority 2020, published 2024).

glucosylceramide synthase (GCS), sequence (Q16739 whole entry): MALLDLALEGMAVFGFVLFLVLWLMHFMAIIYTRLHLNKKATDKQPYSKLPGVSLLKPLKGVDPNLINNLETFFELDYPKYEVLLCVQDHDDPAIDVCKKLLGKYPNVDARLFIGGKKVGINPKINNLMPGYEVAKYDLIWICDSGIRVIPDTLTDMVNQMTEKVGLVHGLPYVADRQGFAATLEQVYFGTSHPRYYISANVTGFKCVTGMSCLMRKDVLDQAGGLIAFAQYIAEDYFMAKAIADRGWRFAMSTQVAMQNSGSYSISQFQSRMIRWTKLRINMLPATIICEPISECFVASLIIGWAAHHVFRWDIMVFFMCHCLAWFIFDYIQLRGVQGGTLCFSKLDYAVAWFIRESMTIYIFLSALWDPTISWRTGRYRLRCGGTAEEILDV

In the experiment the target is glucosylceramide synthase (GCS) (Homo sapiens (Human), UniProt Q16739). Briefly: UDP-Glo glucosylceramide synthase biochemical assay. The following applies: endogenous GCS in Golgi preparations from human A375 malignant melanoma skin cells; C6 ceramide and UDP-glucose substrates; 20 h incubation; UDP detected by luminescence. An excerpt:
UDP-Glo™ Glucosylceramide Synthase Biochemical Assay
A UDP-Glo™ glucosylceramide synthase biochemical assay was utilized to evaluate the effect of test compounds on the activity of endogenous levels of GCS enzyme contained within Golgi preparations isolated from human A375 malignant melanoma skin cells. The UDP-Glo™ glucosylceramide synthase assay uses UDP-Glucose as a nucleotide-glycosyl donor and ceramide as substrate acceptor molecules. In the reaction, glucosylceramide synthase (GCS) transfers glucose from UDP-Glucose to ceramide. Glucosylceramide and UDP are released as products.
Using Promega's UDP-Glo™ Glycosyltransferase assay kit (Promega Corporation, Madison, WI, USA (Promega)), GCS activity was indirectly measured by detecting the amount of UDP produced. An aliquot of GCS enzyme (1.5 μg crude golgi preparation, total protein) and titrated test compound were aliquoted to each well and incubated for 30 minutes at room temperature. […] An equivalent volume of substrate mixture was then added to each well. Following a 20 h incubation at room temperature to allow for GCS turnover of substrate, an equal volume of UDP detection reagent (Promega) was added to each well and incubated for an additional 75 minutes at room temperature to simultaneously convert the accumulated UDP product into ATP and generate light in a luciferase reaction. The generated light was detected using a luminometer. […] luminescence values (RLUs) were normalized to mean “min” and “max” effects, as determined on each plate. “Min” was defined as the mean of the values of the wells treated with vehicle (DMSO) and which represent 0% inhibition; “max” was defined as the mean of the values of the wells treated with a reference inhibitor and which represent the 100% effect. Values for % Emax and EC50 were determined by best-fitting the normalized data to a curve in Activity Base along a four-parameter logistic nonlinear regression (4PL) model (based on the Levenberg-Marquardt algorithm and defined by the equation below): […]
where: n is 4PMin (bottom of the curve); m is 4PMax (top of the curve); i is IP (inflection point of curve); and p is slope. See Levenberg, K., “A Method for the Solution of Certain Problems in Least Squares”, Quart. Appl. Math. 2, (1944), pp 164-168 and Marquardt, D., “An Algorithm for Least Squares Estimation on Nonlinear Parameters”, SIAM J. Appl. Math. 11, (1963) pp 431-441.
On to `O=C(c1cn2cc(C(F)(F)F)cc(-c3ccccc3OCC(F)(F)F)c2n1)N1CCOC2(COC2)C1` [Compound 51, (2,5-dioxa-8-azaspiro[3.5]nonan-8-yl)(8-(2-(2,2,2-trifluoroethoxy)phenyl)-6-(trifluoromethyl)imidazo[1,2-a]pyridin-2-yl)methanone], for which the midpoint of the response, the EC50, lay at 0.51 nM.

Consider `O=C(NCc1ccccn1)c1cn2cccc(-c3ccccc3OCC(F)(F)F)c2n1` [Compound 52, N-(pyridin-2-ylmethyl)-8-(2-(2,2,2-trifluoroethoxy)phenyl)imidazo[1,2-a]pyridine-2-carboxamide], for which the EC50 (commonly the concentration at which the effect is half-maximal) worked out at 13 nM.

Take `CC1(C)OCC1NC(=O)c1cn2cccc(-c3ccccc3OCC(F)(F)F)c2n1` (centres unmarked) [Compound 53, N-(2,2-dimethyloxetan-3-yl)-8-(2-(2,2,2-trifluoroethoxy)phenyl)imidazo[1,2-a]pyridine-2-carboxamide]: the midpoint of the response, the EC50, lay at 30 nM. In the case of `CN(CCN1CCCC1)C(=O)c1cn2cccc(-c3ccccc3OCC(F)(F)F)c2n1` [Compound 54, N-methyl-N-(2-(pyrrolidin-1-yl)ethyl)-8-(2-(2,2,2-trifluoroethoxy)phenyl)imidazo[1,2-a]pyridine-2-carboxamide] it was 3 nM.

Compound `O=C(c1cn2cccc(-c3ccccc3OCC(F)(F)F)c2n1)N1CCn2ccnc2C1` [Compound 55, (5,6-dihydroimidazo[1,2-a]pyrazin-7(8H)-yl)(8-(2-(2,2,2-trifluoroethoxy)phenyl)imidazo[1,2-a]pyridin-2-yl)methanone] showed an EC50 of 2.9 nM. In the case of `Cc1ccncc1NC(=O)c1cn2cccc(-c3ccccc3OCC(F)(F)F)c2n1` [Compound 56, N-(4-methylpyridin-3-yl)-8-(2-(2,2,2-trifluoroethoxy)phenyl)imidazo[1,2-a]pyridine-2-carboxamide] it was 0.15 nM. In the case of `O=C(Nc1cnccc1F)c1cn2cccc(-c3ccccc3OCC(F)(F)F)c2n1` [Compound 57, N-(4-fluoropyridin-3-yl)-8-(2-(2,2,2-trifluoroethoxy)phenyl)imidazo[1,2-a]pyridine-2-carboxamide] it was 0.45 nM.

As for `O=C(Nc1ccc[n+]([O-])c1)c1cn2cccc(-c3ccccc3OCC(F)(F)F)c2n1` [Compound 58, 3-(8-(2-(2,2,2-trifluoroethoxy)phenyl)imidazo[1,2-a]pyridine-2-carboxamido)pyridine-1-oxide], the EC50 was found to be 28 nM. Regarding `N#Cc1cnccc1NC(=O)c1cn2cccc(-c3ccccc3OCC(F)(F)F)c2n1` [Compound 59, N-(3-cyanopyridin-4-yl)-8-(2-(2,2,2-trifluoroethoxy)phenyl)imidazo[1,2-a]pyridine-2-carboxamide], a half-maximal effect (EC50) was put at 6 nM. The same measure for `O=C(c1cn2cc(Cl)cc(-c3ccccc3OCC(F)(F)F)c2n1)N1C[C@H]2C(CO)[C@@H]2C1` (stereo partly drawn) [Compound 60, (6-chloro-8-(2-(2,2,2-trifluoroethoxy)phenyl)imidazo[1,2-a]pyridin-2-yl)((1R,5R)-6-(hydroxymethyl)-3-azabicyclo[3.1.0]hexan-3-yl)methanone]: 30 nM. In turn, `O=C(Nc1cccnc1)c1cn2cc(F)cc(-c3ccccc3OCC(F)(F)F)c2n1` [Compound 61, 6-fluoro-N-(pyridin-3-yl)-8-(2-(2,2,2-trifluoroethoxy)phenyl)imidazo[1,2-a]pyridine-2-carboxamide] had a concentration giving a half-maximal response (EC50) of 0.083 nM. On to `OCc1cn2cc(C(F)(F)F)cc(-c3ccccc3OCC(F)(F)F)c2n1` [Compound 62, (8-(2-(2,2,2-trifluoroethoxy)phenyl)-6-(trifluoromethyl)imidazo[1,2-a]pyridin-2-yl)methanol], for which it took 17 nM to reach a half-maximal effect (EC50). In turn, `CC(O)c1cn2cc(Cl)cc(-c3ccccc3OCC(F)(F)F)c2n1` (centres unmarked) [Compound 64, 1-[6-chloro-8-[2-(2,2,2-trifluoroethoxy)phenyl]imidazo[1,2-a]pyridin-2-yl]ethanol] gave a concentration for a half-maximal effect (EC50) of 13 nM. In the case of `OC(c1cn2cc(Cl)cc(-c3ccccc3OCC(F)(F)F)c2n1)C1CC1` (centres unmarked) [Compound 65, [6-chloro-8-[2-(2,2,2-trifluoroethoxy)phenyl]imidazo[1,2-a]pyridin-2-yl]-cyclopropyl-methanol] it was 1.3 nM; in that of `CC(C)(O)c1cn2cc(Cl)cc(-c3ccccc3OCC(F)(F)F)c2n1` [Compound 66, 2-(6-chloro-8-(2-(2,2,2-trifluoroethoxy)phenyl)imidazo[1,2-a]pyridin-2-yl)propan-2-ol], 15 nM; in that of `CC(C)(O)c1cn2cc(Cl)cc(-c3ccc(F)cc3OCC(F)(F)F)c2n1` [Compound 67, 2-(6-chloro-8-(4-fluoro-2-(2,2,2-trifluoroethoxy)phenyl)imidazo[1,2-a]pyridin-2-yl) propan-2-ol], 67 nM. The same measure for `OC(c1cn2cc(F)cc(-c3ccccc3OCC(F)(F)F)c2n1)C1CCOCC1` (centres unmarked) [Compound 68, (6-fluoro-8-(2-(2,2,2-trifluoroethoxy)phenyl)imidazo[1,2-a]pyridin-2-yl)(tetrahydro-2H-pyran-4-yl)methanol]: 10 nM; for `CC1(C)CN=C(c2cn3cc(Cl)cc(-c4ccccc4OCC(F)(F)F)c3n2)O1` [Compound 69, 2-(6-chloro-8-(2-(2,2,2-trifluoroethoxy)phenyl)imidazo[1,2-a]pyridin-2-yl)-5,5-dimethyl-4,5-dihydrooxazole]: 15 nM. The same measure for `CN1CC2(CN=C(c3cn4cc(Cl)cc(-c5ccccc5OCC(F)(F)F)c4n3)O2)C1` [Compound 70, 6-[6-chloro-8-[2-(2,2,2-trifluoroethoxy)phenyl]imidazo[1,2-a]pyridin-2-yl]-2-methyl-5-oxa-2,7-diazaspiro[3.4]oct-6-ene]: 0.061 nM; for `CC1(CO)CN=C(c2cn3cc(Cl)cc(-c4ccccc4OCC(F)(F)F)c3n2)O1` (centres unmarked) [Compound 71, (2-(6-chloro-8-(2-(2,2,2-trifluoroethoxy)phenyl)imidazo[1,2-a]pyridin-2-yl)-5-methyl-4,5-dihydrooxazol-5-yl)methanol]: 16 nM. On to `OCC1COC(c2cn3cc(Cl)cc(-c4ccccc4OCC(F)(F)F)c3n2)=N1` (centres unmarked) [Compound 72, [2-[6-chloro-8-[2-(2,2,2-trifluoroethoxy)phenyl]imidazo[1,2-a]pyridin-2-yl]-4,5-dihydrooxazol-4-yl]methanol], for which the midpoint of the response, the EC50, lay at 7.9 nM. In turn, `CC1(CO)COC(c2cn3cc(Cl)cc(-c4ccccc4OCC(F)(F)F)c3n2)=N1` (centres unmarked) [Compound 73, [2-[6-chloro-8-[2-(2,2,2-trifluoroethoxy)phenyl]imidazo[1,2-a]pyridin-2-yl]-4-methyl-5H-oxazol-4-yl]methanol] came in with an EC50 of 32 nM.

Regarding `NCC1CN=C(c2cn3cc(Cl)cc(-c4ccccc4OCC(F)(F)F)c3n2)O1` (centres unmarked) [Compound 74, (2-(6-chloro-8-(2-(2,2,2-trifluoroethoxy)phenyl)imidazo[1,2-a]pyridin-2-yl)-4,5-dihydrooxazol-5-yl)methanamine], the EC50 was found to be 12 nM. Compound `CC(C)(O)C1COC(c2cn3cc(Cl)cc(-c4ccccc4OCC(F)(F)F)c3n2)=N1` (centres unmarked) [Compound 75, 2-(2-(6-chloro-8-(2-(2,2,2-trifluoroethoxy)phenyl)imidazo[1,2-a]pyridin-2-yl)-4,5-dihydrooxazol-4-yl)propan-2-ol] returned an EC50 of 30 nM. With `CC(C)(O)C1CN=C(c2cn3cc(Cl)cc(-c4ccccc4OCC(F)(F)F)c3n2)O1` (centres unmarked) [Compound 76, 2-[2-[6-chloro-8-[2-(2,2,2-trifluoroethoxy)phenyl]imidazo[1,2-a]pyridin-2-yl]-4,5-dihydrooxazol-5-yl]propan-2-ol], the EC50 was determined as 13 nM. In the case of `CC(C)(O)C1(C)CN=C(c2cn3cc(Cl)cc(-c4ccccc4OCC(F)(F)F)c3n2)O1` (centres unmarked) [Compound 77, 2-[2-[6-chloro-8-[2-(2,2,2-trifluoroethoxy)phenyl]imidazo[1,2-a]pyridin-2-yl]-5-methyl-4H-oxazol-5-yl]propan-2-ol] it was 3.7 nM; in that of `CC(C)(O)C1(C)COC(c2cn3cc(Cl)cc(-c4ccccc4OCC(F)(F)F)c3n2)=N1` (centres unmarked) [Compound 78, 2-[2-[6-chloro-8-[2-(2,2,2-trifluoroethoxy)phenyl]imidazo[1,2-a]pyridin-2-yl]-4-methyl-5H-oxazol-4-yl]propan-2-ol], 32 nM; in that of `CC(C)(C)NCc1cn2cccc(-c3ccccc3OCC(F)(F)F)c2n1` [Compound 79, 2-methyl-N-((8-(2-(2,2,2-trifluoroethoxy)phenyl)imidazo[1,2-a]pyridin-2-yl)methyl)propan-2-amine], 140 nM. The same measure for `NCc1cn2cccc(-c3ccccc3OCC(F)(F)F)c2n1` [Compound 80, (8-(2-(2,2,2-trifluoroethoxy)phenyl)imidazo[1,2-a]pyridin-2-yl)methanamine]: 330 nM.
